Tests used:
Progesterone receptor = target: T1, Progesterone receptor (Homo sapiens, UniProt P06401); experiment: Displacement of [[3H]-Progesterone from progesterone receptor (unknown origin) expressed in 293 cells after 16 hrs by scintillation counting; type: cell-based
T1 sequence (P06401 whole entry): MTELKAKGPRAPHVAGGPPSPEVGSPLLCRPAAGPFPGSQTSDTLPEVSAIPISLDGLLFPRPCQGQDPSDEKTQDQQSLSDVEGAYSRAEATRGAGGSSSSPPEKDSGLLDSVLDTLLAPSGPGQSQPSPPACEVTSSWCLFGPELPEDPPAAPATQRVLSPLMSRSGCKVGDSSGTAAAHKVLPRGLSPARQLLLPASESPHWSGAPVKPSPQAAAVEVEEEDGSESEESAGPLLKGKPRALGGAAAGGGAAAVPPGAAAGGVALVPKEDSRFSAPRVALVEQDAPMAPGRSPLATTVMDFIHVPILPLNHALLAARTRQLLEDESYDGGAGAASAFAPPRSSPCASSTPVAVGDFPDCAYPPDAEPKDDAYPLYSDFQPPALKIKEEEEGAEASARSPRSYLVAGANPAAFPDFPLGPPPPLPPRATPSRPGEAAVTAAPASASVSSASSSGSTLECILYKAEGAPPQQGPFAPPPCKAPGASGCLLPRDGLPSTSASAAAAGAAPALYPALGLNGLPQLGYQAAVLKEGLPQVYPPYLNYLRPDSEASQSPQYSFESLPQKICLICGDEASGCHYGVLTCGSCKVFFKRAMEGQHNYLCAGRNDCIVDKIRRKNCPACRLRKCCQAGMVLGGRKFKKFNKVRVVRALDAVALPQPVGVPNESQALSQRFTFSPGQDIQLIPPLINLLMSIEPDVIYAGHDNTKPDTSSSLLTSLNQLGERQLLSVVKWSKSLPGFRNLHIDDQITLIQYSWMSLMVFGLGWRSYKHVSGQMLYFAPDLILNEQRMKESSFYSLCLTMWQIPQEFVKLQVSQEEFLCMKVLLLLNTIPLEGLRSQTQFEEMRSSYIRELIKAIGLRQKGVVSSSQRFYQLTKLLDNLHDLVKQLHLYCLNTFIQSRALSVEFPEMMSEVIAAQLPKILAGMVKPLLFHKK

[1] = target: T2, Mineralocorticoid receptor (Homo sapiens, UniProt P08235)
T2 sequence (P08235 whole entry): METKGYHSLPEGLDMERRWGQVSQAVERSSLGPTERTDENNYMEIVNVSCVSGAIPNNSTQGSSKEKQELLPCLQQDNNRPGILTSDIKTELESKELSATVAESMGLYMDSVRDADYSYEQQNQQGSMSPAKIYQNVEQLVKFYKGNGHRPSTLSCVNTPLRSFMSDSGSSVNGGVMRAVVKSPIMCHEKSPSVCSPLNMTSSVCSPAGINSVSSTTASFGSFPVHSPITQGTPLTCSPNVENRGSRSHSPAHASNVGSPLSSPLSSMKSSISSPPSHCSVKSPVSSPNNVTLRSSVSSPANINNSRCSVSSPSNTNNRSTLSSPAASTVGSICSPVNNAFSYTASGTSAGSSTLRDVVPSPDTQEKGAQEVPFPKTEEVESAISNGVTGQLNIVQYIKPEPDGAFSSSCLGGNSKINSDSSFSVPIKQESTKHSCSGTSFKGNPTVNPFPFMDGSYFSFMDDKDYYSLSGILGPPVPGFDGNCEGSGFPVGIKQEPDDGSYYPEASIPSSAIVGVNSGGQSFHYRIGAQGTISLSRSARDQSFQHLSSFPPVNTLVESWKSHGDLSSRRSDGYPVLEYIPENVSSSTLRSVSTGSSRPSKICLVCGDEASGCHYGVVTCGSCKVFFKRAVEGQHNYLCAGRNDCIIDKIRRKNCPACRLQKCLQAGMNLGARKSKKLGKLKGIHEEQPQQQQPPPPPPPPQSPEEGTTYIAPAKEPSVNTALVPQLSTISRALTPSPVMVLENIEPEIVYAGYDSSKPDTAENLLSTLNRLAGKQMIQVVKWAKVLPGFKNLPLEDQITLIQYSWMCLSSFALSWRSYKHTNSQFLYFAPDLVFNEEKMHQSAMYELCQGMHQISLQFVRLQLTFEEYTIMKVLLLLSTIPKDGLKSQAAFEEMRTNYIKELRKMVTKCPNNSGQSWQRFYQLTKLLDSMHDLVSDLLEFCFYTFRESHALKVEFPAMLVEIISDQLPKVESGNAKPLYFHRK
Description: Antagonist activity at human mineralocorticoid receptor expressed in COS1 cells after 1 day by luciferase reporter gene assay

[2] = target: T2, Mineralocorticoid receptor; experiment: biochemical
Description: Displacement of [3H]aldosterone from human mineralocorticoid receptor expressed in 293 cells after 16 hrs by scintillation counting

Androgen receptor = target: T3, Androgen receptor (Homo sapiens, UniProt P10275); experiment: biochemical
T3 sequence (P10275 whole entry): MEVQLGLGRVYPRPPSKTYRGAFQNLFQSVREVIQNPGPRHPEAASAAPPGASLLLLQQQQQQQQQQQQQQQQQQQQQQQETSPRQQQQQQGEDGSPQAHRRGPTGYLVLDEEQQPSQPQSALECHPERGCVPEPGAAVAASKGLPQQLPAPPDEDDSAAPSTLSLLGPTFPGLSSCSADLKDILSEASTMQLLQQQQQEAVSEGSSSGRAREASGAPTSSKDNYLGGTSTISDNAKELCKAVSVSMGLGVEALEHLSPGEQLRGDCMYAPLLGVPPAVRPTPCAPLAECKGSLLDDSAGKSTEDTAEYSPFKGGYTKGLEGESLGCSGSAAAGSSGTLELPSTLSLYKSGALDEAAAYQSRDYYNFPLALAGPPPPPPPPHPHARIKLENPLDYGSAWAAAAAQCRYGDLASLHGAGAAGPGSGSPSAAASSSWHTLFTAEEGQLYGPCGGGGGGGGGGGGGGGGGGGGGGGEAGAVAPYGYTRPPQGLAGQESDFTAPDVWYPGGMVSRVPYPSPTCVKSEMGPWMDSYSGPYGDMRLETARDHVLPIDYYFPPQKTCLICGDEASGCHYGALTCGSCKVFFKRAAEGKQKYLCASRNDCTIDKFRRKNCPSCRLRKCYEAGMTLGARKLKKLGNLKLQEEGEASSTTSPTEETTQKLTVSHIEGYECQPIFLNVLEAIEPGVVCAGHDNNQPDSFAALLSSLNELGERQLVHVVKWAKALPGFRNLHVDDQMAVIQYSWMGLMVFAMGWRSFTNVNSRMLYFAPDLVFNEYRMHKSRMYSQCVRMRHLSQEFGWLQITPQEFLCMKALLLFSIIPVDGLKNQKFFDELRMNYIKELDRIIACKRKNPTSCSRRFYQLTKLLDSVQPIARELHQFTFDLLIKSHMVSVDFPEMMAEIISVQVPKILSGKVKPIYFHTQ
Description: Displacement of [3H]testosterone from androgen receptor (unknown origin) expressed in 293 cells after 16 hrs by scintillation counting

Glucocorticoid receptor = Glucocorticoid receptor (Homo sapiens, UniProt P04150); experiment: biochemical
Glucocorticoid receptor, sequence (P04150 whole entry, looked up): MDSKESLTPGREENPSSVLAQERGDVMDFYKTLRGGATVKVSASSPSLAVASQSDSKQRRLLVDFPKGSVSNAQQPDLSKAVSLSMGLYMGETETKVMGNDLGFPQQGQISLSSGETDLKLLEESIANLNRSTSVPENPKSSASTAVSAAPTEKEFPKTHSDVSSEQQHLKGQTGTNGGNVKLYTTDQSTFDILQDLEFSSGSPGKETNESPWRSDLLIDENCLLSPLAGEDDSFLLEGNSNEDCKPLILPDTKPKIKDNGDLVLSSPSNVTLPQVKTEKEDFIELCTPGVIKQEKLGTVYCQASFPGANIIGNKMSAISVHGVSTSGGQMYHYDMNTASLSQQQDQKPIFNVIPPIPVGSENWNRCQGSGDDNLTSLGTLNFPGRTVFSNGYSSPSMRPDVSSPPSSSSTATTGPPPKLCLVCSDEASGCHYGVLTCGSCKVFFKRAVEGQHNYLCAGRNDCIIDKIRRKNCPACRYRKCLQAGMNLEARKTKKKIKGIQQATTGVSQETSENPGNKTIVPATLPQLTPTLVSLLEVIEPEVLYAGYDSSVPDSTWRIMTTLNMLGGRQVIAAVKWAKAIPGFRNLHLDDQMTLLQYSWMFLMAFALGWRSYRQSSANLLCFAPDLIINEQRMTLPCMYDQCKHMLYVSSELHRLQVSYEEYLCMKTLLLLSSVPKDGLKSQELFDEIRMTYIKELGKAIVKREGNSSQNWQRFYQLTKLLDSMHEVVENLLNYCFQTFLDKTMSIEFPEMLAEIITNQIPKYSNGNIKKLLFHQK
Description: Displacement of [3H]-Dexamethasone from glucocorticoid receptor (unknown origin) expressed in 293 cells after 16 hrs by scintillation counting

[3] = Lipophilicity, log D of the compound at pH 7.4 by HPLC analysis; type: physicochemical; conditions: buffer
Rattus norvegicus [4] = experiment: Toxicity in DOCA-salt hypertensive Wistar rat model assessed as change in heart rate at 100 mg/kg, po qd for 18 days measured 24 hrs post 7th and 14th last dose by tail-cuff method; type: organism-based; parameters: dose 100 mg/kg, route oral; conditions: in vivo
Rattus norvegicus [5] = experiment: Toxicity in DOCA-salt hypertensive Wistar rat model assessed as change in seminal vesicle weight at 100 mg/kg, po qd for 18 days measured 24 hrs post 7th and 14th last dose […]; type: organism-based; parameters: dose 100 mg/kg, route oral; conditions: in vivo
[6] = Metabolic stability in rat hepatic microsomes at 1 umol/L pre-incubated fro 5 mins at 37 degC before addition of NADPH-generating system by UV detection based HPLC method; type: ADME; conditions: liver microsomes, read-out: CLH

SMILES	IC50 (Progesterone receptor) [nM]	IC50 [1] [nM]	IC50 [2] [nM]	IC50 (Androgen receptor) [nM]	IC50 (Glucocorticoid receptor) [nM]	logD [3]	microsomal CLint at 1 µM [6] [µL/min/mg]	Activity (Rattus norvegicus [4])	Activity (Rattus norvegicus [5])
Cn1ncc(-c2ccc3c(c2)NC(=O)CO3)c1-c1ccc(F)cc1	> 10000	170	290	> 10000	> 10000	–	–	–	–
Cc1nn(C)c(-c2ccc(F)cc2F)c1-c1ccc2c(c1)NC(=O)CO2	9300	600	190	> 10000	2300	–	–	–	–
CCCCn1nc(C)c(-c2ccc3c(c2)NC(=O)CO3)c1-c1ccc(F)cc1	4000	45	22	3600	1400	–	–	–	–
Cc1nn(CCCO)c(-c2ccc(F)cc2)c1-c1ccc2c(c1)NC(=O)CO2	> 10000	680	440	> 10000	> 10000	1.99	–	–	–
Cc1nn(Cc2ccccc2)c(-c2ccc(F)cc2)c1-c1ccc2c(c1)NC(=O)CO2	2000	64	100	5600	630	–	–	–	–
Cc1nn(CCNS(C)(=O)=O)c(-c2ccc(F)cc2)c1-c1ccc2c(c1)NC(=O)CO2	> 10000	2000	250	> 10000	> 10000	1.7	–	–	–
Cc1nn(Cc2ccncc2)c(-c2ccc(F)cc2)c1-c1ccc2c(c1)NC(=O)CO2	> 10000	430	520	> 10000	> 10000	2.2	–	–	–
CCCn1nc(C)c(-c2ccc3c(c2)NC(=O)CO3)c1-c1ccc(F)cc1	5700	180	81	> 10000	1600	–	–	–	–
Cc1onc(-c2ccc3c(c2)NC(=O)CO3)c1-c1ccc(F)cc1	> 10000	1400	710	> 10000	> 10000	–	–	–	–
Cc1nn(CCCCO)c(-c2ccc(F)cc2)c1-c1ccc2c(c1)NC(=O)CO2	> 10000	130	75	> 10000	5400	2.16	–	–	–
CCn1nc(C)c(-c2ccc3c(c2)NC(=O)CO3)c1-c1ccc(F)cc1	> 10000	950	510	> 10000	5600	–	–	–	–
CC(=O)S[C@@H]1CC2=CC(=O)CC[C@]2(C)[C@H]2CC[C@@]3(C)[C@@H](CC[C@@]34CCC(=O)O4)[C@H]12 [SPIRONOLACTONE]	–	–	–	–	–	–	–	Non-toxic	Toxic
Cc1nn(Cc2ccccn2)c(-c2ccc(F)cc2)c1-c1ccc2c(c1)NC(=O)CO2	> 10000	990	2800	> 10000	> 10000	2.45	–	–	–
Cc1nn(CCC#N)c(-c2ccc(F)cc2)c1-c1ccc2c(c1)NC(=O)CO2	5700	490	530	> 10000	4600	1.89	–	–	–
Cc1nn(Cc2cccnc2)c(-c2ccc(F)cc2)c1-c1ccc2c(c1)NC(=O)CO2	> 10000	36	36	> 10000	1700	2.22	> 200	–	–
Cc1nn(CCC(C)(F)F)c(-c2ccc(F)cc2)c1-c1ccc2c(c1)NC(=O)CO2	4000	18	10	9200	370	–	–	–	–
Cc1nn(CC(C)C)c(-c2ccc(F)cc2)c1-c1ccc2c(c1)NC(=O)CO2	4300	49	60	3700	390	–	–	–	–
Cc1cc(-c2c(C)nn(C)c2-c2ccc(F)cc2)cc2c1OCC(=O)N2	> 10000	350	150	> 10000	2500	–	–	–	–

Second part, led by results:

IC50 (Progesterone receptor) [nM]	IC50 [1] [nM]	IC50 [2] [nM]	IC50 (Androgen receptor) [nM]	IC50 (Glucocorticoid receptor) [nM]	logD [3]	microsomal CLint at 1 µM [6] [µL/min/mg]	SMILES	Activity (Rattus norvegicus [4])	Activity (Rattus norvegicus [5])
6800	33	8.4	> 10000	1100	–	–	Cc1nn(CCCC(F)(F)F)c(-c2ccc(F)cc2)c1-c1ccc2c(c1)NC(=O)CO2	–	–
> 10000	540	38	> 10000	1300	2.11	–	Cc1nn(CC(F)(F)CCO)c(-c2ccc(F)cc2)c1-c1ccc2c(c1)NC(=O)CO2	–	–
–	–	> 10000	–	–	–	–	Cc1nn(-c2ccccc2)c(-c2ccc(F)cc2)c1-c1ccc2c(c1)NC(=O)CO2	–	–
> 10000	–	–	> 10000	–	–	–	Cc1cc(C2=C(c3ccc(F)cc3)C(=O)NC2C)cc2c1OCC(=O)N2 (stereo unspecified)	–	–
9800	160	110	> 10000	3200	2.51	–	Cc1nn(C)c(-c2ccc(F)cc2)c1-c1ccc2c(c1)NC(=O)CO2	–	–
1600	–	3700	> 10000	> 10000	–	–	Cc1[nH]nc(-c2ccc3c(c2)NC(=O)CO3)c1-c1ccc(F)cc1	–	–
–	–	> 10000	–	–	–	–	CC(=O)NCCn1nc(C)c(-c2ccc3c(c2)NC(=O)CO3)c1-c1ccc(F)cc1	–	–
> 10000	180	95	> 10000	2500	2.34	–	Cc1nn(CCC(F)(F)CO)c(-c2ccc(F)cc2)c1-c1ccc2c(c1)NC(=O)CO2	–	–

— ChEMBL document CHEMBL3351638, “Discovery of 6-[5-(4-fluorophenyl)-3-methyl-pyrazol-4-yl]-benzoxazin-3-one derivatives as novel selective nonsteroidal mineralocorticoid receptor antagonists” (Bioorg Med Chem, 2014)
